Measurements: the NIST ThermoML archive (doi:10.1021/je030236t)
Numbers after ± are expanded uncertainties.

How the values were obtained:
[1] = molar enthalpy of vaporization or sublimation; details: 298.15 K; Liquid
[2] = Liquid
[3] = Molar enthalpy of transition or fusion; details: Crystal; DSC

Row | Compound | molar enthalpy [1] [kcal/mol] | vapor or sublimation pressure ([2]; 298.15 K) [kPa] | vapor or sublimation pressure ([2]; 310 K) [kPa] | vapor or sublimation pressure ([2]; 320 K) [kPa] | vapor or sublimation pressure ([2]; 330 K) [kPa] | vapor or sublimation pressure ([2]; 340 K) [kPa] | vapor or sublimation pressure ([2]; 350 K) [kPa] | vapor or sublimation pressure ([2]; 360 K) [kPa] | vapor or sublimation pressure ([2]; 370 K) [kPa] | vapor or sublimation pressure ([2]; 380 K) [kPa] | vapor or sublimation pressure ([2]; 390 K) [kPa] | vapor or sublimation pressure ([2]; 400 K) [kPa] | vapor or sublimation pressure ([2]; 410 K) [kPa] | vapor or sublimation pressure ([2]; 420 K) [kPa] | vapor or sublimation pressure ([2]; 430 K) [kPa] | vapor or sublimation pressure ([2]; 440 K) [kPa] | vapor or sublimation pressure ([2]; 450 K) [kPa] | vapor or sublimation pressure ([2]; 460 K) [kPa] | vapor or sublimation pressure ([2]; 470 K) [kPa] | vapor or sublimation pressure ([2]; 480 K) [kPa] | further results
1 | c1ccc(-c2cc(-c3ccccc3)cc(-c3ccccc3)c2)cc1 [1,3,5-triphenylbenzene] |  |  |  |  |  |  |  |  |  |  |  |  |  |  |  |  |  |  |  |  | Molar enthalpy of transition or fusion [3]: 7.43 ± 0.215 kcal/mol
2 | CCCCCCCCCCCCCCCCCCCCCCCCCCCCCCCCCCCCCC [octatriacontane] | 46 ± 2.34 | 5.13e-15 ± 1.5e-15 | 9.81e-14 ± 2.9e-14 | 9.59e-13 ± 2.9e-13 | 7.88e-12 ± 2.4e-12 | 5.54e-11 ± 1.7e-11 | 3.38e-10 ± 1e-10 | 1.81e-09 ± 5.4e-10 | 8.6e-09 ± 2.6e-09 | 3.67e-08 ± 1.1e-08 | 1.42e-07 ± 4.3e-08 | 5.03e-07 ± 1.5e-07 | 1.64e-06 ± 4.9e-07 | 4.95e-06 ± 1.5e-06 | 1.39e-05 ± 4.2e-06 | 3.68e-05 ± 1.1e-05 | 9.16e-05 ± 2.8e-05 | 0.000216 ± 6.5e-05 | 0.000484 ± 0.00015 | 0.00104 ± 0.00031 | vapor or sublimation pressure ([2]; 490 K): 0.00212 ± 0.00064 kPa; vapor or sublimation pressure ([2]; 500 K): 0.00417 ± 0.0013 kPa; vapor or sublimation pressure ([2]; 510 K): 0.00791 ± 0.0024 kPa; vapor or sublimation pressure ([2]; 520 K): 0.0145 ± 0.0044 kPa; vapor or sublimation pressure ([2]; 530 K): 0.0257 ± 0.0077 kPa; vapor or sublimation pressure ([2]; 540 K): 0.0441 ± 0.013 kPa; vapor or sublimation pressure ([2]; 550 K): 0.0738 ± 0.022 kPa; vapor or sublimation pressure ([2]; 560 K): 0.12 ± 0.036 kPa; vapor or sublimation pressure ([2]; 570 K): 0.191 ± 0.057 kPa; vapor or sublimation pressure ([2]; 580 K): 0.296 ± 0.089 kPa

Continued, in another order:

Row | molar enthalpy [1] [kcal/mol] | vapor or sublimation pressure ([2]; 298.15 K) [kPa] | vapor or sublimation pressure ([2]; 310 K) [kPa] | vapor or sublimation pressure ([2]; 320 K) [kPa] | vapor or sublimation pressure ([2]; 330 K) [kPa] | vapor or sublimation pressure ([2]; 340 K) [kPa] | vapor or sublimation pressure ([2]; 350 K) [kPa] | vapor or sublimation pressure ([2]; 360 K) [kPa] | vapor or sublimation pressure ([2]; 370 K) [kPa] | vapor or sublimation pressure ([2]; 380 K) [kPa] | vapor or sublimation pressure ([2]; 390 K) [kPa] | vapor or sublimation pressure ([2]; 400 K) [kPa] | vapor or sublimation pressure ([2]; 410 K) [kPa] | vapor or sublimation pressure ([2]; 420 K) [kPa] | vapor or sublimation pressure ([2]; 430 K) [kPa] | vapor or sublimation pressure ([2]; 440 K) [kPa] | vapor or sublimation pressure ([2]; 450 K) [kPa] | vapor or sublimation pressure ([2]; 460 K) [kPa] | vapor or sublimation pressure ([2]; 470 K) [kPa] | vapor or sublimation pressure ([2]; 480 K) [kPa] | Compound | further results
3 | 40.1 ± 2.06 | 1.19e-12 ± 2.4e-13 | 1.54e-11 ± 3.1e-12 | 1.11e-10 ± 2.2e-11 | 6.95e-10 ± 1.4e-10 | 3.79e-09 ± 7.6e-10 | 1.82e-08 ± 3.6e-09 | 7.83e-08 ± 1.6e-08 | 3.04e-07 ± 6.1e-08 | 1.07e-06 ± 2.1e-07 | 3.49e-06 ± 7e-07 | 1.05e-05 ± 2.1e-06 | 2.92e-05 ± 5.8e-06 | 7.65e-05 ± 1.5e-05 | 0.000189 ± 3.8e-05 | 0.000439 ± 8.8e-05 | 0.000972 ± 0.00019 | 0.00205 ± 0.00041 | 0.00415 ± 0.00083 | 0.00805 ± 0.0016 | CCCCCCCCCCCCCCCCCCCCCCCCCCCCCCCCC [tritriacontane] | vapor or sublimation pressure ([2]; 490 K): 0.015 ± 0.003 kPa; vapor or sublimation pressure ([2]; 500 K): 0.0272 ± 0.0054 kPa; vapor or sublimation pressure ([2]; 510 K): 0.0474 ± 0.0095 kPa; vapor or sublimation pressure ([2]; 520 K): 0.0804 ± 0.016 kPa; vapor or sublimation pressure ([2]; 530 K): 0.133 ± 0.027 kPa; vapor or sublimation pressure ([2]; 540 K): 0.213 ± 0.043 kPa; vapor or sublimation pressure ([2]; 550 K): 0.334 ± 0.067 kPa; vapor or sublimation pressure ([2]; 560 K): 0.511 ± 0.1 kPa; vapor or sublimation pressure ([2]; 570 K): 0.767 ± 0.15 kPa; vapor or sublimation pressure ([2]; 580 K): 1.13 ± 0.23 kPa
4 | 41.3 ± 2.1 | 3.83e-13 ± 7.7e-14 | 5.39e-12 ± 1.1e-12 | 4.16e-11 ± 8.3e-12 | 2.75e-10 ± 5.5e-11 | 1.58e-09 ± 3.2e-10 | 7.97e-09 ± 1.6e-09 | 3.59e-08 ± 7.2e-09 | 1.45e-07 ± 2.9e-08 | 5.34e-07 ± 1.1e-07 | 1.8e-06 ± 3.6e-07 | 5.58e-06 ± 1.1e-06 | 1.61e-05 ± 3.2e-06 | 4.34e-05 ± 8.7e-06 | 0.00011 ± 2.2e-05 | 0.000263 ± 5.3e-05 | 0.000596 ± 0.00012 | 0.00129 ± 0.00026 | 0.00266 ± 0.00053 | 0.00527 ± 0.001 | CCCCCCCCCCCCCCCCCCCCCCCCCCCCCCCCCC [tetratriacontane] | vapor or sublimation pressure ([2]; 490 K): 0.01 ± 0.002 kPa; vapor or sublimation pressure ([2]; 500 K): 0.0184 ± 0.0037 kPa; vapor or sublimation pressure ([2]; 510 K): 0.0328 ± 0.0066 kPa; vapor or sublimation pressure ([2]; 520 K): 0.0564 ± 0.011 kPa; vapor or sublimation pressure ([2]; 530 K): 0.0944 ± 0.019 kPa; vapor or sublimation pressure ([2]; 540 K): 0.154 ± 0.031 kPa; vapor or sublimation pressure ([2]; 550 K): 0.244 ± 0.049 kPa; vapor or sublimation pressure ([2]; 560 K): 0.379 ± 0.076 kPa; vapor or sublimation pressure ([2]; 570 K): 0.575 ± 0.12 kPa; vapor or sublimation pressure ([2]; 580 K): 0.856 ± 0.17 kPa
5 | 42.5 ± 2.2 | 1.22e-13 ± 3.7e-14 | 1.86e-12 ± 5.6e-13 | 1.53e-11 ± 4.6e-12 | 1.07e-10 ± 3.2e-11 | 6.52e-10 ± 2e-10 | 3.46e-09 ± 1e-09 | 1.63e-08 ± 4.9e-09 | 6.91e-08 ± 2.1e-08 | 2.64e-07 ± 7.9e-08 | 9.25e-07 ± 2.8e-07 | 2.97e-06 ± 8.9e-07 | 8.87e-06 ± 2.7e-06 | 2.46e-05 ± 7.4e-06 | 6.42e-05 ± 1.9e-05 | 0.000158 ± 4.7e-05 | 0.000367 ± 0.00011 | 0.000812 ± 0.00024 | 0.00171 ± 0.00051 | 0.00346 ± 0.001 | CCCCCCCCCCCCCCCCCCCCCCCCCCCCCCCCCCC [pentatriacontane] | vapor or sublimation pressure ([2]; 490 K): 0.00673 ± 0.002 kPa; vapor or sublimation pressure ([2]; 500 K): 0.0126 ± 0.0038 kPa; vapor or sublimation pressure ([2]; 510 K): 0.0228 ± 0.0068 kPa; vapor or sublimation pressure ([2]; 520 K): 0.0399 ± 0.012 kPa; vapor or sublimation pressure ([2]; 530 K): 0.0678 ± 0.02 kPa; vapor or sublimation pressure ([2]; 540 K): 0.112 ± 0.034 kPa; vapor or sublimation pressure ([2]; 550 K): 0.181 ± 0.054 kPa; vapor or sublimation pressure ([2]; 560 K): 0.284 ± 0.085 kPa; vapor or sublimation pressure ([2]; 570 K): 0.436 ± 0.13 kPa; vapor or sublimation pressure ([2]; 580 K): 0.657 ± 0.2 kPa
